For assay [1], the target named is T1, Peroxisome proliferator-activated receptor alpha (Mus musculus, UniProt P23204).
T1 sequence (P23204 whole entry): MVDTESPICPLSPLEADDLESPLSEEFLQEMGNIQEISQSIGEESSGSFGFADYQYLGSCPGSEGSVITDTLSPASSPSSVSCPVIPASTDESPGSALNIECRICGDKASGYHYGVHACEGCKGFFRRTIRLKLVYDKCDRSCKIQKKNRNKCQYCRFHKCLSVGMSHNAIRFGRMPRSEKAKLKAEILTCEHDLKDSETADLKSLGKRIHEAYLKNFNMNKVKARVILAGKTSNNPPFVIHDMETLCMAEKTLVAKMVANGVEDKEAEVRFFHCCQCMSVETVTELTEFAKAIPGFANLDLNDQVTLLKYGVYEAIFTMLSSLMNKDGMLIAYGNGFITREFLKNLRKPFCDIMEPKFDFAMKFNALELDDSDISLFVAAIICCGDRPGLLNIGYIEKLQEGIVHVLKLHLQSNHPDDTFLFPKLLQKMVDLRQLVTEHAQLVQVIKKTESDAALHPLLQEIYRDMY
Briefly: Effective concentration against murine PPARalpha in transactivation assay.

Assay [2] concerns the target T2, Peroxisome proliferator-activated receptor alpha (Mus musculus) (UniProt P23204).
T2 sequence (whole entry): T1 sequence (P23204 whole entry)
Briefly: Efficacy against murine PPARalpha relative to Wy-14,643.

Assay [3] has as its target T3, Peroxisome proliferator-activated receptor alpha (Homo sapiens) (UniProt Q07869).
T3 sequence (whole entry): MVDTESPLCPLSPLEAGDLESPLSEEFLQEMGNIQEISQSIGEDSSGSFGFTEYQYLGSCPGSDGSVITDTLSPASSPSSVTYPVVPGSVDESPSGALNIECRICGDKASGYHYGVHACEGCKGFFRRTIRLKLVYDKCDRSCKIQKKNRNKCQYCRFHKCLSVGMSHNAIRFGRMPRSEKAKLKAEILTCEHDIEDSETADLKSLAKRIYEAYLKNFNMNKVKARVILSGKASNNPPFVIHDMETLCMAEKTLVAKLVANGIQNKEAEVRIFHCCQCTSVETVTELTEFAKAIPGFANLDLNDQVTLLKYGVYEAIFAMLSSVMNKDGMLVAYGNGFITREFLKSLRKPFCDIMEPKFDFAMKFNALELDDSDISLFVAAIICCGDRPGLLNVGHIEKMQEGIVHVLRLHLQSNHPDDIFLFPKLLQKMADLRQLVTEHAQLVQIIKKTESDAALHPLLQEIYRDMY
The assay is described as follows: Efficacy against human PPARalpha expressed in HepG2 cells relative to Wy-14,643. The assay is classed as cell-based.

For assay [4], the target named is T4, Peroxisome proliferator-activated receptor alpha (Homo sapiens, UniProt Q07869).
T4 sequence (Q07869 whole entry): T3 sequence (whole entry)
The assay is described as follows: Effective concentration against human PPARalpha expressed in HepG2 cells. In kind it is cell-based.

Assay [5] addresses T5, Peroxisome proliferator-activated receptor gamma (Homo sapiens, UniProt P37231).
T5 sequence (P37231 whole entry): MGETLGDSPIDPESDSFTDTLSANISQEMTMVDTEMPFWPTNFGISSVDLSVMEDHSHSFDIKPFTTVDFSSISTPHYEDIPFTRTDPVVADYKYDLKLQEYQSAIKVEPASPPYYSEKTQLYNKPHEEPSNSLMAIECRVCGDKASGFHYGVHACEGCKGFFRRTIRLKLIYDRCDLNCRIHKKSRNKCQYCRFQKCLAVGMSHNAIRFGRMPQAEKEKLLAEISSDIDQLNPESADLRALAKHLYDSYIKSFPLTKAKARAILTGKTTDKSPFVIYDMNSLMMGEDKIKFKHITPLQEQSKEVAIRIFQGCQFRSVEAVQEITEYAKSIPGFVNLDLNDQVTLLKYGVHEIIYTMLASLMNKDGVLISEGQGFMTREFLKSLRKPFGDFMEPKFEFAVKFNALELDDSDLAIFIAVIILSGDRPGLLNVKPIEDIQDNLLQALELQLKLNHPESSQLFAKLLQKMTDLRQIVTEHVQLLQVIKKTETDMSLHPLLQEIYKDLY

Assay [6] addresses T4, Peroxisome proliferator-activated receptor alpha. Briefly: Effective concentration against human PPARalpha expressed in HepG2 cells; i.a = inactive at tested concentration. In kind it is cell-based.
Assay [7] addresses T5, Peroxisome proliferator-activated receptor gamma. Briefly: Effective concentration against human PPARgamma expressed in HepG2 cells; i.a = inactive at tested concentration. In kind it is cell-based.

The results in this text go back to ChEMBL document CHEMBL1145171, “Synthesis, biological evaluation, and molecular modeling investigation of new chiral fibrates with PPARalpha and PPARgamma agonist activity” (J Med Chem, 2005).

As usually defined, the EC50 is the concentration giving half of the maximal effect.

Consider `CCc1ccc(O[C@@H](Cc2ccccc2)C(=O)O)cc1`, for which the EC50 in assay [1] came to 350 nM; in assay [4], 0.7 µM; in assay [5], 3.6 µM. For the same molecule, the Efficacy is 127 in assay [2] and 114 in assay [3].

With `O=C(O)[C@H](Cc1ccccc1)Oc1ccc(-c2ccccc2)cc1`, the midpoint of the response in assay [1], the EC50, lay at 200 nM. Also, the Efficacy is 99.3 in assay [2] and 124 in assay [3].

The molecule `COc1ccc(O[C@@H](Cc2ccccc2)C(=O)O)cc1` yielded an Efficacy in assay [3] of 80.7. Further, the values for the EC50 in assay [4] and in assay [5] were 2.5 µM and 20.1 µM, respectively.

Molecule `O=C(O)[C@H](Cc1ccccc1)Oc1ccc2ccccc2c1` yielded an Efficacy in assay [3] of 130. The EC50 in assay [4] was 1.4 µM; in assay [5], 1.5 µM.

With `CN(CCOc1ccc(CC2SC(=O)NC2=O)cc1)c1ccccn1` (centres undefined) [ROSIGLITAZONE], the EC50 result in assay [6] is “Not Active”.

In turn, `CCC[C@@H](Oc1ccc2ccccc2c1)C(=O)O` displayed an Efficacy in assay [3] of 10.5. Moreover, the EC50 in assay [4] was 3.9 µM; in assay [5], 12.5 µM.

For `CC(C)(Oc1ccc(Cl)cc1)C(=O)O` [CLOFIBRIC ACID], the EC50 in assay [1] was 42000 nM; in assay [4], 39.6 µM; in assay [5] it was 309 µM. Further, the Efficacy in assay [2] stood at 67.2; in assay [3], 89.7.

As to `O=C(O)[C@H](Cc1ccccc1)Oc1ccc(C(F)(F)F)cc1`, the results for the EC50 in assay [1], in assay [4] and in assay [5] were 270 nM, 0.5 µM and 0.9 µM, respectively. The Efficacy in assay [2] amounted to 107; in assay [3] it was 80.7.

For the molecule `O=C(O)[C@H](Cc1ccccc1)Oc1ccc(Cl)cc1`, the EC50 came to 1300 nM in assay [1], 3.9 µM in assay [4] and 2.7 µM in assay [5]. In addition, the Efficacy in assay [2] was determined as 49.1; in assay [3], 99.4.

`CCC[C@H](OCc1ccc(-c2ccc(Cl)cc2)cc1)C(=O)O` had an Efficacy in assay [3] of 29.8. In addition, the EC50 in assay [4] is 3.9 µM; in assay [5], 8.9 µM.

For the molecule `O=C(O)[C@@H](Cc1ccccc1)Oc1ccc(Cl)cc1`, in assay [3], the Efficacy stood at 14.3. Also, the EC50 in assay [4] is 10.9 µM; in assay [5], 10.5 µM.

`Cc1cccc(Nc2cc(Cl)nc(SCC(=O)O)n2)c1C` [PIRINIXIC ACID]: the EC50 result in assay [7] is given as “Not Active”. In addition, the Efficacy in assay [2] and in assay [3] was 100 throughout.

The molecule `CCC[C@H](Oc1ccc2ccccc2c1)C(=O)O` returned an Efficacy in assay [3] of 95.6. In addition, the results for the EC50 in assay [4] and in assay [5] were 8.4 µM and 7.2 µM, respectively.

With `O=C(O)[C@H](Cc1ccccc1)Oc1ccc(-c2cccs2)cc1`, the concentration giving a half-maximal response (EC50) was found to be 150 nM in assay [1], 0.9 µM in assay [4] and 1.6 µM in assay [5]. The Efficacy worked out at 70.7 in assay [2] and 93.2 in assay [3].

In the case of `CCC[C@@H](OCc1ccc(-c2ccc(Cl)cc2)cc1)C(=O)O`, in assay [3], the Efficacy came to 36.6. The EC50 stood at 4 µM in assay [4] and 5.4 µM in assay [5].

As to `CC(=O)c1ccc(O[C@@H](Cc2ccccc2)C(=O)O)cc1`, the Efficacy in assay [3] stood at 68.3. Further, the EC50 is 13.5 µM in assay [4] and 12.4 µM in assay [5].

In assay [3], `O=C(O)[C@H](Cc1ccccc1)Oc1ccc(CO)cc1` displayed an Efficacy of 38.2. The values for the EC50 in assay [4] and in assay [5] were 28.7 µM and 25.7 µM, respectively.
